Experimental data reported in patent US6924307B2, “Aminobutyric acid derivatives and pharmaceutical composition containing the same as active ingredient” (Ono Pharmaceutical Co., Ltd., priority 1999, dated 2005).

How the values were obtained:
Format in all cases: biochemical
[1] = target: T1, human stromelysin (Homo sapiens, UniProt P08254); experiment: Inhibitory activity against stromelysin (synthetic substrate NFF-3, fluorescence); details: APMA-activated, pH 7.5, 37° C.
T1 construct: purchased Yagai
Experimental: (3) Inhibitory Activity Against Stromelysin Method:
The mixture of human stromelysin (Yagai; 9 volume) and 10 mM p-aminophenylmercury acetate (1 volume) was activated for 20 hours at 37° C. A solution of the test compound in dimethylsulfoxide (10 μl) and 0.5 mM solution (10 μl) of 10 mM solution of the synthetic substrate NFF-3 (Mca-Arg-Pro-Lys-Pro-Val-Glu-Nva-Trp-Arg-Lys(DNP)-NH2., Nva: norvaline, Peptide Laboratory) in dimethylsulfoxide diluted by water were added to assay buffer (50 mM tris-HCl, 10 mM CaCl2, 0.05% Brij35, 0.02% NaN3 (pH 7.5)) (150 μl). Furthermore, assay buffer (30 μl) was added to the mixture. The mixture was incubated for 10 minutes at 37° C. The reaction was started by addition of a solution of the above activated stromelysin solution (50 μl). The enzyme activity was represented by increasing value of fluorescent intensity [Ex=325 nm (Ex)/393 nm (Em)] per 1 minute. Inhibitory activity was represented by inhibitory percentage (%) per enzyme activity without the test compound.

[2] = target: T2, collagenase (Homo sapiens, UniProt P03956); experiment: Inhibitory activity against collagenase (thiopeptolide synthetic substrate, absorption at 324 nm); details: collagenase from procollagenase purified from human normal skin dermal fibroblasts (HNDF), trypsin-activated; 26° C.
T2 construct: endogenous in cells; host or cells: human normal skin dermal fibroblasts (HNDF)
T2 sequence (P03956 100-469): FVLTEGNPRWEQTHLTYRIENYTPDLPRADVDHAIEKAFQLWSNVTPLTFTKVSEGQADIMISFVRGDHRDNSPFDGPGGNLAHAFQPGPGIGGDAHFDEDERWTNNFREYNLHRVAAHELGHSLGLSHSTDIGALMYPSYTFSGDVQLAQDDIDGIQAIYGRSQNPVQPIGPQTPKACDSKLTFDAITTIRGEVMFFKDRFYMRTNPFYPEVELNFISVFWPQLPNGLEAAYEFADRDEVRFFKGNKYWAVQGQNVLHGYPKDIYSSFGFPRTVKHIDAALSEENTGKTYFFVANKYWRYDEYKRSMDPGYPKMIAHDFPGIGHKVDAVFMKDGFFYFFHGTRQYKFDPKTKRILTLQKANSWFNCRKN
Experimental: (2) Inhibitory Activity Against Collagenase Method:
The procollagenase (5 μl; in assay buffer (105 μl)) was purified from human normal skin dermal fibroblasts (HNDF). It was activated by adding thereto 1 mg/ml Trypsin (45 μl) and preincubating for 1 minute at 37° C. Trypsin was inactivated by addition of 5 mg/ml soybean trypsin inhibitor (SBTI; 50 μl).
A mixture of the synthetic substrate (Ac-Pro-Leu-Gly-[2-mercapto-4-methyl-pentanoyl]-Leu-Gly-OEt) (105 μl; a final concentration 1.33 mM) and a solution (20 μl) with or without various concentrations of the test compound was preincubated for 5 minutes at 26° C.
The solution of activated enzyme (75 μl /tube, 50 μl) was mixed with the mixture and the mixture was incubated for 10 minutes at 26° C.
Absorption at 324 nm was measured 40 points in the course of 10 minutes. Vmax value was determined as measured value in 30 points therein.

[3] = target: T3, gelatinase A (Homo sapiens, UniProt P08253); experiment: Inhibitory activity against gelatinase A (fluorogenic synthetic substrate); details: gelatinase A from progelatinase A purified from human normal skin dermal fibroblasts (HNDF), APMA-activated; 37° C.
T3 construct: endogenous in cells; host or cells: human normal skin dermal fibroblasts (HNDF)
T3 sequence (P08253 110-660): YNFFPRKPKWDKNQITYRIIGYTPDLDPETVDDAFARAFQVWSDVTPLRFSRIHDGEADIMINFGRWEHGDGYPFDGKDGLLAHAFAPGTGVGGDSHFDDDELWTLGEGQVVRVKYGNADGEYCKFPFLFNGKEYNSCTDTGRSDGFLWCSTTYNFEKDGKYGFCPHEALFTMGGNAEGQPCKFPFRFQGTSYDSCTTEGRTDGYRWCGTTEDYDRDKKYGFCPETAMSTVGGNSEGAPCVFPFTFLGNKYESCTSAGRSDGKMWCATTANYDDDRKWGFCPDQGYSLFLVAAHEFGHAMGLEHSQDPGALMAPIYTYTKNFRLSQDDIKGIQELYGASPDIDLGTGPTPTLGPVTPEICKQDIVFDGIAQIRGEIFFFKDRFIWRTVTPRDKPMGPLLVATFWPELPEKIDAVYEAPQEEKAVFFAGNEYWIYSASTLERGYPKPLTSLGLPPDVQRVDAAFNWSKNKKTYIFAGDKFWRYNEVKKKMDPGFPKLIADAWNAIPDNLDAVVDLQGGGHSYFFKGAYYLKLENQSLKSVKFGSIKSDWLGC
Experimental: (1) Inhibitory Activity Against Gelatinase A
The progelatinase A (5 μl; in assay buffer (40 μl)) was purified from human normal skin dermal fibroblasts (HNDF). It was activated by adding thereto 10 mM of p-aminophenylmercuric acetate (APMA) (5 μl) and preincubating for 1 hour at 37° C.
A mixture of the synthetic substrate (MOCAc-Pro-Leu-Gly-A2pr(Dnp)-Ala-Arg-NH2) (130 μl; a final concentration 13.5 μM) and a solution (20 μl) with or without various concentrations of the test compound was preincubated for 5 minutes at 37° C.
The solution of activated gelatinase A (50 μl/well) was mixed with the mixture and the mixture was incubated for 15 minutes at 37° C. The enzyme reaction was started. The enzyme activity was represented by increasing value of fluorescent intensity [Ex=325 nm (Ex)/393 nm (Em)] per 1 minute. Inhibitory activity was represented by inhibitory percentage (%) per enzyme activity without the test compound.

T1 sequence (P08254 100-477): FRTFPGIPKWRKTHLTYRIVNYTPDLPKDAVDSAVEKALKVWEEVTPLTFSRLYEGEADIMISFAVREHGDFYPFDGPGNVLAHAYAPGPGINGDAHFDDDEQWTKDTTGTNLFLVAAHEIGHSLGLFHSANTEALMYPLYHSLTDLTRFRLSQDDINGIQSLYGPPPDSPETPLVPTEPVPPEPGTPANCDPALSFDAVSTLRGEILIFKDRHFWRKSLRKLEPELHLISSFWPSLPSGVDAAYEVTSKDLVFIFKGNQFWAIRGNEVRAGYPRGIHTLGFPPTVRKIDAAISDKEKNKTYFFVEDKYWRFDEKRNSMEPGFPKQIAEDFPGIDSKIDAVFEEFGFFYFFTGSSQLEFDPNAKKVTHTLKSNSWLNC

| SMILES | IC50 [1] | IC50 [2] | IC50 [3] |
| --- | --- | --- | --- |
| CCOCOC[C@H](C[C@H](COC)C(=O)NO)NC(=O)c1ccc(-c2ccco2)cc1 [8(7), N-hydroxy-5-ethoxymethoxy-2(R)-methoxymethyl-4(S)-[N-(4-(2-furyl)phenylcarbonyl)amino]pentanamide] | 40 nM | – | – |
| C#CCOC[C@@H](C[C@@H](COCOCC)NC(=O)c1ccc(Cl)cc1)C(=O)NO [20(3), N-hydroxy-5-ethoxymethoxy-2(R)-(2-propynyloxymethyl)-4(S)-[N-(4-chlorophenylcarbonyl)amino]pentanamide] | – | 6.8 nM | – |
| CCOCOC[C@H](C[C@H](COC)C(=O)NO)NC(=O)c1ccc(Oc2ccccc2)cc1 [8(6), N-hydroxy-5-ethoxymethoxy-2(R)-methoxymethyl-4(S)-[N-(4-phenoxyphenylcarbonyl)amino]pentanamide] | 29 nM | – | 1.7 nM |
| CN(C(=O)c1ccc(Br)cc1)[C@H](CO)C[C@H](CCCc1ccccc1)C(=O)NO [16(2), N-hydroxy-2(S)-(3-phenylpropyl)-5-hydroxy-4(S)-[N-methyl-N-(4-bromophenylcarbonyl)amino]pentanamide] | – | – | 4.2 nM |
| CCOCOC[C@H](C[C@H](COC)C(=O)NO)NC(=O)c1ccc(C#N)cc1 [compound 8] | – | 14 nM | – |
| C#CC[C@@H](C[C@@H](CO)N(C)C(=O)c1ccc(Br)cc1)C(=O)NO [21(2), N-hydroxy-2(S)-(2-propynyl)-5-hydroxy-4(S)-[N-methyl-N-(4-bromophenylcarbonyl)amino]pentanamide] | – | 7.6 nM | – |
